“Also recorded” adds a separate entry of the source.
Key:
C57BL/6 mice = test: Open Field Test in mice after chronic stress (MSP); assay type: in vivo
Description: C57BL/6 male and female infant mice were subjected to chronic stress (MSP) by separation from the dam for 6 hours per day from day 1 to day 14. Anxiety behavior was tested after different anxiolytic treatments. The mice received a daily i.p. injection from day 28 of age for two weeks, of one of the following drugs: Citalopram (10 mg/kg), or the adaptogenic composition of the invention comprising Hawthorn fruit, wheat grain and Lilly Bulb (10 mg/kg). The anxiety behavior was tested in the Open Field Test.

BALB mice = test: Novel open field test after acute stress (Yohimibine injection); assay type: in vivo; settings: 15 mg/kg/day i.p., three weeks of treatment, after Yohimibine i.p. 1.25 mg/kg, p<0.05 adaptogenic mixture, p<0.0.1 escitalopram
Description: FIG. 2A: Effect of treatment in the novel open field Test following one week of treatment. FIG. 2B: Effect of treatment in the novel open field Test following two weeks of treatment. […] Mice were treated through i.p. injection with the adaptogenic mixture (15 mg/kg/day), escitalopram (15 mg/kg/day) or vehicle. The acute stress was obtained with Yohimibine i.p injection, a drug known to activate a stress-reaction (Vasa et al., 2009). […] The Novel Open Field is another well-established test of anxiety-related behavior in rodents. The Open Field area generally consists of an empty and bright square arena, surrounded by walls to prevent the rodent from escaping. The rodent is usually placed in the center of the arena and its behavior recorded over a chosen period. The Novel Open Field task approaches the conflict between the innate fear that rodents have of the central area of a novel or brightly lit open field versus their desire to explore new environments. When anxious, the natural tendency of rodents is to prefer staying close to the walls. In this context, anxiety-related behavior is measured by the degree to which the rodent avoids the center of the arena.

ICR mice = test: Elevated plus maze after maternal separation and unpredictable chronic mild stress, treatment after stress; assay type: in vivo; settings: stressed ICR mice, 15 mg/kg i.p., 21 days, p<0.05
Description: On the day of parturition, PND 0 (postnatal day), litters were randomly assigned to undergo MS or to be standard facility reared (SFR) controls. SFR animals were left undisturbed during the entire stress manipulation (both maternal separation and unpredictable chronic mild stress manipulation), except for routine cage maintenance performed once a week. MS procedure was carried out once per day from PND 1-14. The MS procedure was performed by removing the pups from the home cage and placing them together in a separate clean cage placed on a heating pad (30-33° C.) in order to keep the pups in a temperature close to the dam's natural body temperature. 6 hours later, pups were returned to their home cage. […] Elevated plus-maze: Each mouse was placed in the center of the elevated plus maze and his behavior was recorded for the duration of 5 minutes. […] Subsequent to the stress manipulations, anxiety-like behavior was assessed via the elevated plus maze in order to assess the effect of the stress manipulations. […] Following three weeks of treatment with the relevant drug or vehicle, anxiety-like behavior was assessed via the elevated plus maze. 48 hours thereafter and while mice were still receiving treatment, blood samples were collected following acute stress and Corticosterone levels were measured via radio immunoassay (RIA) assay. […]

Corticosterone [1] = test: Corticosterone levels following acute restraint stress (RIA), treatment after chronic stress; assay type: in vivo; settings: stressed ICR mice, 15 mg/kg i.p., 3 weeks, p<0.05 adaptogenic mixture, p<0.01 escitalopram
Description: In order to estimate the endocrinology reaction to acute stress mice were first placed in restraint. Restraint stress is a well documented stressor that initiates an acute transient increase in plasma ACTH and Corticosterone, usually peaking during the course of a 60 min stress exposure. Therefore, following 60 minutes of subjection to restraint stress, blood samples were collected into EDTA-coated tubes from the facial vein. All blood samples were kept on ice and later centrifuged for 10 min at 10000 rpm at 4°. Plasma was transferred to clean, labeled 1.5 ml microcentrifuge tubes. All plasma samples were stored frozen at −20 C.° until the determination of Corticosterone via RIA. Subsequent to the stress manipulations, anxiety-like behavior was assessed via the elevated plus maze in order to assess the effect of the stress manipulations. […] Following three weeks of treatment with the relevant drug or vehicle, anxiety-like behavior was assessed via the elevated plus maze. 48 hours thereafter and while mice were still receiving treatment, blood samples were collected following acute stress and Corticosterone levels were measured via radio immunoassay (RIA) assay. […] Anxiety-related behaviors were assessed using the elevated-plus maze and indicated anxiogenic effect of the stress manipulation. […]

[2] = tested on: mice subjected to maternal separation and unpredictable mild stress; test: Elevated plus maze, treatment during stress; assay type: in vivo; settings: 15 mg/kg i.p., 28 days during stress; control (saline) 44 seconds; p<0.05
Description: (§1) The day following parturition, postnatal day (PND) 1, the litters underwent a Maternal Separation (MS) procedure that was carried out once a day from PND 1-14. At the age of 21 days, all pups were weaned and sexed. 90 male mice were tagged, weighed, and separated into cages of up to five mice per cage, assigned randomly into four groups of treatment as previously described. Between the age of 28 and 56 days (Adolescence), mice were subjected to an Unpredictable Mild Stress paradigm. In this experiment three different stressors were used—all mice were subjected once a day to one of the following stressors: restrainers; placement in an empty cage with water at the bottom; or inversion of light/dark cycle. To prevent habituation and to provide an unpredictable feature to the stressors, every day different stressor was administered for four hours, at different time points of the day. During the entire stress paradigm, drugs were administrated through i.p. injection of the relevant treatment, for the duration of 28 days. Upon reaching adulthood and following four weeks of treatment, behavior, peripheral hormones and brain monoamines were measured in order to assess the effects of the novel treatment. […]

[3] = tested on: mice subjected to maternal separation and unpredictable mild stress; test: Sucrose test, treatment during stress; assay type: in vivo; settings: escitalopram group (15 mg/kg as previously described) i.p., 28 days during stress; control (saline) 51 ml; p<0.05
Description: The day following parturition, postnatal day (PND) 1, the litters underwent a Maternal Separation (MS) procedure that was carried out once a day from PND 1-14. At the age of 21 days, all pups were weaned and sexed. 90 male mice were tagged, weighed, and separated into cages of up to five mice per cage, assigned randomly into four groups of treatment as previously described. Between the age of 28 and 56 days (Adolescence), mice were subjected to an Unpredictable Mild Stress paradigm. In this experiment three different stressors were used—all mice were subjected once a day to one of the following stressors: restrainers; placement in an empty cage with water at the bottom; or inversion of light/dark cycle. To prevent habituation and to provide an unpredictable feature to the stressors, every day different stressor was administered for four hours, at different time points of the day. During the entire stress paradigm, drugs were administrated through i.p. injection of the relevant treatment, for the duration of 28 days. Upon reaching adulthood and following four weeks of treatment, behavior, peripheral hormones and brain monoamines were measured in order to assess the effects of the novel treatment. […] After the 12 hours, the amount of ordinary water, sucrose water and food eaten by the mouse, was calculated. […]

Corticosterone [4] = test: Corticosterone levels following acute restraint stress (RIA), treatment during stress; assay type: in vivo, mice; settings: escitalopram group (15 mg/kg as previously described), 28 days during stress; control 80.9 ng/ml; p<0.05
Description: as §1, with “treatment. In order to estimate the endocrinological reaction to acute stress, mice were first placed in restrainers.” for “treatment.”

[5] = tested on: Brain-derived neurotrophic factor (BDNF); test: Hippocampal BDNF levels by EIA, treatment during stress; assay type: in vivo, mice; settings: escitalopram group (15 mg/kg as previously described), 28 days during stress; control (saline) 12 pc/μg; p<0.05
Description: The day following parturition, postnatal day (PND) 1, the litters underwent a Maternal Separation (MS) procedure that was carried out once a day from PND 1-14. At the age of 21 days, all pups were weaned and sexed. 90 male mice were tagged, weighed, and separated into cages of up to five mice per cage, assigned randomly into four groups of treatment as previously described. Between the age of 28 and 56 days (Adolescence), mice were subjected to an Unpredictable Mild Stress paradigm. In this experiment three different stressors were used—all mice were subjected once a day to one of the following stressors: restrainers; placement in an empty cage with water at the bottom; or inversion of light/dark cycle. To prevent habituation and to provide an unpredictable feature to the stressors, every day different stressor was administered for four hours, at different time points of the day. During the entire stress paradigm, drugs were administrated through i.p. injection of the relevant treatment, for the duration of 28 days. Upon reaching adulthood and following four weeks of treatment, behavior, peripheral hormones and brain monoamines were measured in order to assess the effects of the novel treatment.
At the end of the experiment, all treated mice were sacrificed. The brains of the mice were placed in a mold on ice. […] Brain-derived neurotrophic factor (BDNF) was measured by EIA. […]

Structure (SMILES)	Time inside the center of the arena, Open Field Test (C57BL/6 mice; MSP (chronically stressed) C57BL/6 mice, 10 mg/kg i.p. daily for two weeks, saline 1.8 seconds, n=16) [s]	Entries to the inside of the arena, Open Field Test (C57BL/6 mice; MSP C57BL/6 mice, 10 mg/kg i.p. daily for two weeks, saline 1.6 times, n=16) [times]	Time inside the center of the arena, Open Field Test (C57BL/6 mice; treated, unstressed mice, 10 mg/kg i.p., saline unstressed 4.5 seconds) [s]	Time spent inside the field of the control group in comparison to the treated group, novel open field (BALB mice)	Time spent in the open arms in comparison to control group, elevated plus maze (ICR mice)	Corticosterone levels following acute restraint stress in comparison to control group (Corticosterone [1])	Time spent in the open arms, Elevated Plus Maze [2] [s]	Sucrose consumption, sucrose test [3] [mL]	Corticosterone levels following acute restraint stress (Corticosterone [4]) [ng/mL]	BDNF levels (hippocampus) [5] [pc/μg]
CN(C)CCCC1(c2ccc(F)cc2)OCc2cc(C#N)ccc21 (stereo not shown) [Citalopram]	2.5	2.4	4.6							
CN(C)CCC[C@@]1(c2ccc(F)cc2)OCc2cc(C#N)ccc21 [escitalopram, Escitalopram]				significantly less pronounced	significantly more time; also recorded: same effect	significantly lower; also recorded: same effect	64	55	77.3	16

Reference: patent US9320772B2, “Herbal composition for treating anxiety related conditions” (OPMOP LTD., priority 2010, dated 2016)
